Laboratory results: PubChem BioAssay AID743425 (Vanderbilt Specialized Chemistry Center, 2014)
Activity calls are given as the source filed them. How the calls were made is not given here.

Biological target: Metabotropic glutamate receptor 8 (Rattus norvegicus) (UniProt P70579)
Assay: potentiation of glutamate EC20 at mGlu8 – rat receptor, calcium, dose response (AID 743425)
Details: rat mGlu8, Fluo-4 calcium, hits give high values

Sequence of Metabotropic glutamate receptor 8 (Rattus norvegicus) (P70579 whole entry, looked up): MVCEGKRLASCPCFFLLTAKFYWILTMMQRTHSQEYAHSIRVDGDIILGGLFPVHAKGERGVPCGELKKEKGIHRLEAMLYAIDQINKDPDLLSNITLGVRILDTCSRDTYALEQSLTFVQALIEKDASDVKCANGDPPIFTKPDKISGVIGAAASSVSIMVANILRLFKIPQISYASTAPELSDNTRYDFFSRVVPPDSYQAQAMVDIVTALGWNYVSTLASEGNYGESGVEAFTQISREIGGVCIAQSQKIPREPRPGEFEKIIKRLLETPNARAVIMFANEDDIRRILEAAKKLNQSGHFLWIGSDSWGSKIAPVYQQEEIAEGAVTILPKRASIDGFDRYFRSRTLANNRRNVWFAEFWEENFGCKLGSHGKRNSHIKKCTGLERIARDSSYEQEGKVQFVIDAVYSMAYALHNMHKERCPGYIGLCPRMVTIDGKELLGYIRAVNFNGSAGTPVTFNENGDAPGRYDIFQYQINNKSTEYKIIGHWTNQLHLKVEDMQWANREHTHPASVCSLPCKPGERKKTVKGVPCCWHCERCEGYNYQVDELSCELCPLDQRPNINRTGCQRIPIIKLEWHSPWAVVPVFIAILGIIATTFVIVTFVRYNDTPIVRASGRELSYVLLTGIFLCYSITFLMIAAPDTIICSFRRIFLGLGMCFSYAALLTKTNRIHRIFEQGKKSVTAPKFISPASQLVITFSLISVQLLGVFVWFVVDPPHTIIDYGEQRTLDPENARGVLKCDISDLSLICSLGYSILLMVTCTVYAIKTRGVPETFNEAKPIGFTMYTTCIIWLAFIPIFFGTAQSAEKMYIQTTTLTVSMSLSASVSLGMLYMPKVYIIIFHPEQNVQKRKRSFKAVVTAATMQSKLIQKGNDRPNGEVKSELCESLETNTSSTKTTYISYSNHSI

| % glutamate max | Compound |
| --- | --- |
| inactive | COC(=O)c1ccc(-n2c(C)cc(C(=O)CNc3ccc(C(=O)O)cc3)c2C)cc1 |
| inactive | COC(=O)c1ccc(-n2c(C)cc(C(=O)COc3cccc(N(C)C)c3)c2C)cc1 |

Biological target: Metabotropic glutamate receptor 8 (Homo sapiens) (UniProt O00222)
Assay: as above
Details: rat mGlu8, Fluo-4 calcium

Sequence of Metabotropic glutamate receptor 8 (Homo sapiens) (O00222 whole entry, looked up): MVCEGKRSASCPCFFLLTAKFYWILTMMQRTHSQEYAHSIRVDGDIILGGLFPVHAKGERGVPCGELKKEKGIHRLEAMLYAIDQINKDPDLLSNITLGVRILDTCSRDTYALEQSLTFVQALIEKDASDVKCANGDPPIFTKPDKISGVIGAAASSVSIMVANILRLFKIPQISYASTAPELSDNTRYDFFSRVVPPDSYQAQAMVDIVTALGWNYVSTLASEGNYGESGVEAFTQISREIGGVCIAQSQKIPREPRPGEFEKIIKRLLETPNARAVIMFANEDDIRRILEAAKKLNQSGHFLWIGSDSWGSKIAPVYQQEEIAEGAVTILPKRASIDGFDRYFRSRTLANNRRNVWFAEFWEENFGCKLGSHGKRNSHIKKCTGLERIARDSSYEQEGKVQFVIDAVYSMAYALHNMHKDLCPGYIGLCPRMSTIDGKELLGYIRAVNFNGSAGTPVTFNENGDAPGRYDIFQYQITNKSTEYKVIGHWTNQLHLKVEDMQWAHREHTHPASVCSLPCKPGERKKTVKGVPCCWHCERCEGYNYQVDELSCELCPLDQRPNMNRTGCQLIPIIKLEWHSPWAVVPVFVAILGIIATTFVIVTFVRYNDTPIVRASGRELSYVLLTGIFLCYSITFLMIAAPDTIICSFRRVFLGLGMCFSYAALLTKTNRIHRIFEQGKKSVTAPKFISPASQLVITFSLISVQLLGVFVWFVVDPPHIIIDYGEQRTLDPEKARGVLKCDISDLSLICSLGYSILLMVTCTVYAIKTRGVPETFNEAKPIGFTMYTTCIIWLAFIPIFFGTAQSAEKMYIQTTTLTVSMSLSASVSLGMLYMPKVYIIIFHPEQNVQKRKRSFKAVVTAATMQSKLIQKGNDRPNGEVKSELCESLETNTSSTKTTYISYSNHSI

| Compound | EC50 |
| --- | --- |
| COC(=O)c1ccc(-n2c(C)cc(C(=O)COc3ccc(NC(C)=O)cc3)c2C)cc1 | 3.4 µM |
| CCn1c(C)cc(C(=O)CSc2ccc(NC(C)=O)cc2)c1C | 10 µM |
| CC(=O)Nc1ccc(OCC(=O)c2cc(C)n(-c3ccc(OC(F)F)cc3)c2C)cc1 | 3.5 µM |
| CC(=O)Nc1ccc(SCC(=O)c2cc(C)n(-c3cccc(F)c3)c2C)cc1 | 1.5 µM |
| CC(=O)Nc1ccc(SCC(=O)c2cc(C)n(CC3COc4ccccc4O3)c2C)cc1 (stereo not drawn) | 1.14 µM |
| CC(=O)Nc1ccc(SCC(=O)c2cc(C)n(-c3nc(C)cs3)c2C)cc1 | 10 µM |
| CCOc1ccc(-n2c(C)cc(C(=O)CSc3ccc(OC)cc3)c2C)cc1 | 3.16 µM |
| CC(=O)Nc1ccc(SCC(=O)c2cc(C)n(-c3ccccc3F)c2C)cc1 | 3.16 µM |
| CC(=O)Nc1ccc(SCC(=O)c2cc(C)n(-c3ccc(S(N)(=O)=O)cc3)c2C)cc1 | 3.16 µM |
| CCOc1ccc(-n2c(C)cc(C(=O)CSCc3ccc(OC)cc3)c2C)cc1 | 3.16 µM |
| COc1ccc(SCC(=O)c2cc(C)n(-c3ccc(OC(F)F)cc3)c2C)cc1 | 3.16 µM |
| CC(=O)Nc1ccc(SCC(=O)c2cc(C)n(CC3CCCO3)c2C)cc1 (stereo not drawn) | 3.44 µM |
| CC(=O)Nc1ccc(SCC(=O)c2cc(C)n(CCc3cccs3)c2C)cc1 | 1.6 µM |
| COc1ccc(CSCC(=O)c2cc(C)n(-c3ccc(OC(F)F)cc3)c2C)cc1 | 0.23 µM |
| COC(=O)c1ccc(-n2c(C)cc(C(=O)COc3ccc(OC(C)=O)cc3)c2C)cc1 | 10 µM |

The remaining lines, values ahead:

| EC50 | Compound |
| --- | --- |
| 3.16 µM | Cc1ccc(CSCC(=O)c2cc(C)n(-c3ccc(OC(F)F)cc3)c2C)cc1 |
| 3.16 µM | CCOc1ccc(-n2c(C)cc(C(=O)CSCc3cccc(C)c3)c2C)cc1 |
| 3.3 µM | COC(=O)c1ccc(-n2c(C)cc(C(=O)CSc3ccc(N(C)C(C)=O)cc3)c2C)cc1 |
| 0.93 µM | COC(=O)c1ccc(-n2c(C)cc(C(=O)CSc3ccc(NC(C)=O)cc3)c2C)cc1 |
| 3.16 µM | COC(=O)c1ccc(-n2c(C)cc(C(=O)CSCc3cccc(C)c3)c2C)cc1 |
| 1.6 µM | COC(=O)c1ccc(-n2c(C)cc(C(=O)CSCc3ccc(OC)cc3)c2C)cc1 |
